Experimental data as given in publication PMC10591299, “Targeting SHP2 with an Active Site Inhibitor Blocks Signaling and Breast Cancer Cell Phenotypes” (ACS Bio & Med Chem Au, 2023).
Where two headings read alike, the source gives them in different places.

Assays:
[1] = molecular target: T1, SHP2 (Homo sapiens, UniProt Q06124); assay: PTPase assay, GST-fusion PTP domain of SHP2, DiFMUP substrate; format: biochemical; settings: for fold difference: SHP2 IC50 relative to CNBCA
T1 construct: the GST fusion of the PTP domains of SHP2, SHP1, and PTP1B were produced and purified as reported by us previously; GST; made in house
T1 sequence (Q06124 247-517 limits assumed): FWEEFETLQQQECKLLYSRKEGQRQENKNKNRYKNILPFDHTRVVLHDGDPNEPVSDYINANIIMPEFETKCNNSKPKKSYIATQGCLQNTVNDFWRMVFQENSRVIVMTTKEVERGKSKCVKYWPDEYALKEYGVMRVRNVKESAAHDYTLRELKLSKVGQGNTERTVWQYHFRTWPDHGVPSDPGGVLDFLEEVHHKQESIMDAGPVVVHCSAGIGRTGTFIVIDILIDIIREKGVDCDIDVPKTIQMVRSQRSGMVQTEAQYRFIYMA
Description: After completion of synthesis, both CNBCA and CNBBA were purified on silica gel, and purity was determined by HPLC. The purified compounds were then tested for their effect on the SHP2 enzyme activity and on the activity of the selected control PTPs (SHP1 and PTP1B) by the phosphotyrosyl phosphatase (PTPase) assay as described previously.[30],[31] First, the GST fusion of the PTP domains of SHP2, SHP1, and PTP1B were produced and purified as reported by us previously.[32] The reactions were performed in a buffer containing 10 mM Tris-HCl (pH 7.2), 100 mM NaCl, 1 mM EDTA, 1 mM dithiothreitol (DTT), and 0.01% Tween-20. Briefly, CNBCA or CNBBA was added first in a serial dilution ranging from 100 μM to 97 nM followed by the enzymes (SHP2, SHP1, or PTP1B) to a final concentration of 1 nM. After 5 min of incubation at room temperature, the reactions were started by adding the artificial substrate DiFMUP (6,8-difluoro-4-methylumbelliferyl phosphate) to a final concentration of 20 μM for SHP2, 35 μM for SHP1, and 10 μM for PTP1B in a reaction volume of 100 μL; variations in DiFMUP concentrations reflect the reported Km values for the respective PTPs.[33] The complete mixture was incubated at 37 °C for 20 min, and fluorescence intensity was measured by the Synergy 4 plate reader at the excitation and emission wavelengths of 360 and 460 nm, respectively. The half inhibitory concentration (IC50) value of each compound was calculated and plotted using Graphpad Prism software.
We used the PTPase assay described previously[30],[31] to evaluate the effect of the newly synthesized compounds on the enzymatic activity of SHP2, SHP1, and PTP1B. The PTP domains of the indicated proteins were prepared as reported by us recently.[32] The artificial PTP substrate DiFMUP (6,8-Difluoro-4-Methylumbelliferyl Phosphate) was purchased from Invitrogen. The purified proteins were dialyzed into a phosphatase buffer containing 10 mM Tris-HCl ([…]), 100 mM NaCl, 1.0 mM EDTA, 1.0 mM dithiothreitol (DTT), and 0.01% Tween-20. Briefly, the PTPase reactions were performed in 100 μL volume containing 1 nM enzyme, inhibitors in serial dilutions (12 nM to 100 μM), and DiFMUP to a final concentration of 20 μM for SHP2, 35 μM for SHP1, and 10 μM for PTP1B. Differences in DiFMUP concentrations reflect the reported Km values for each PTP.[37] The mixtures were incubated at 37 °C for 20 min and transferred to 96 well plates, and the fluorescence intensity was measured by a Synergy 4 plate reader at the excitation and emission wavelengths of 360 and 460 nm, respectively. Graphpad Prism software was used to calculate the IC50 values.

[2] = molecular target: T1, SHP2; set-up: method as in PMID 33043190; settings: previously published parent compound, included for comparison; cited from earlier work
[3] = molecular target: T2, SHP1 (Homo sapiens, UniProt P29350); set-up: method as in PMID 33043190; settings: previously shown; cited from earlier work
T2 construct: The GST fusion PTP domains of SHP1 and PTP1B were expressed and purified in a fashion similar to that of SHP2; GST; made in house
T2 sequence (P29350 244-515 limits assumed): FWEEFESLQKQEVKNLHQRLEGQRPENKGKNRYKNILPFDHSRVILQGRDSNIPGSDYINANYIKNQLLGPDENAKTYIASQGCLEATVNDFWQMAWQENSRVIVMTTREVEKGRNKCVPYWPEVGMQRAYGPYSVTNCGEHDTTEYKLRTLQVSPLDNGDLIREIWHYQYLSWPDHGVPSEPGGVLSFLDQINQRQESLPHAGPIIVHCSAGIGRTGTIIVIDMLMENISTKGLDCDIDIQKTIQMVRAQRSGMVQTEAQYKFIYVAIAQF

IC50 ([1]; PTP domain, 1 nM enzyme, 20 μM DiFMUP, 37 °C 20 min) [µM]	fold difference [1] [fold]	SMILES	IC50 [2] [µM]	selectivity for inhibition of SHP2 over SHP1 [3]
5.1	5.8	CCCCCCCCCOc1ccc(-c2ccc(CC(=O)O)cc2)cc1CCCC(=O)O [CNBBA, 4-(4′-(carboxymethyl)-4-(nonyloxy)-[1,1′-biphenyl]-3-yl) butanoic acid]	–	–
–	5.7	CCCCCCCCCOc1c(CCCC(=O)O)cc(-c2ccc(C(=O)O)cc2)cc1CCCC(=O)O [CNBDA]	5	approximately 25 fold
